# Measurements taken from paper PMC11096368, “Transcriptomic signature, bioactivity and safety of a non-hepatotoxic analgesic generating AM404 in the midbrain PAG region” (Scientific Reports, 2024).
# Where two headings read alike, the source gives them in different places.
# Experiments:
# Format in all cases: in vivo
# [1] = tested on: liver of CD1 mice; assay: Hepatotoxicity at 600 mg/kg: nitrotyrosine, ZO-1 tight junctions, TUNEL, liver function tests; conditions: 15 out of 20 ApAP treated animals; data not shown
# [2] = tested on: CD1 or C57BL/6 mice; assay: Acetic acid-induced abdominal writhing assay (visceral pain); conditions: for ED50: Mus musculus, equimolar dosing; for Analgesia in acetic acid-induced writhing assay: high dose (100 mg/kg), all experimental cohorts
# Excerpt: The investigators were blinded till the completion of all the experiments. To ensure objectivity, investigators were blinded for the acetic acid and tail flick experiments. In the CFA/von Frey and Hargreaves assays, one investigator did the drug pre-treatments, and another investigator at another location who was not aware of the treatments conducted the behavioral testing. Moreover, these studies used the eVF device that electronically registers the grams of force necessary to elicit paw withdrawal, eliminating bias that confounded older versions of this test in which an investigator used a series of individual von Frey microfilaments to determine paw withdrawal thresholds. Six separate experimenters were involved in the data acquisition for behavioral testing, and another separate investigator performed all the statistical analyses using GraphPad Prism Version 9.1.2. Statistical significance was determined by p < 0.05; one-way ANOVA followed by Sidak’s multiple comparisons post hoc test. Mixed-gender experiments were powered to test for gender effects, and different ages of rodents were also included for the experiments – young (2 months) and aged (20 months) to tease out whether there are any effects of age-related changes in nociceptive sensitivity under naïve, and inflammatory pre-clinical rodent pain models. For the aged rats and mice, we could only obtain male Sprague–Dawley rats and male C57BL/6 mice of 20 months old from all commercial animal vendors and from the National Institute of Aging (NIA). So, only these rodents were used for the older animal experimental cohort. Old female rats and mice were not available at the time when these experiments were conducted. For ED50 calculation, dose–response curves were calculated with regression analysis and log transformation using GraphPad Prism 9.1.2.
# In this model of visceral pain, abdominal contraction (writhing), in which contraction of the abdominal muscles and stretching of the hind limbs is induced in mice in response to an ip injection of 0.4% acetic acid at a dose of 10 mL/kg 25 min after drug administration, is assessed. Specifically, the number of writhes is counted for 10 min, beginning 5 min after acetic acid injection. […] CD1 (young male and female) or C57BL/6 (aged male) mice were used. For the abdominal writhing assays, we used n = 35 aged male mice, n = 70 young male mice, and n = 70 young female mice.
# [3] = tested on: male CD1 mice; assay: Baker yeast-induced hyperthermia antipyresis assay; conditions: 75 mg/kg per os, n = 10
# Method: (§1) Antipyresis experiments were carried out with n = 60 CD-1 male mice weighing between 45 and 50 g. All mice were kept in a 12-h day/12-h night cycle with free access to food and water ad libitum. After habituating and acclimating the mice for a week, each mouse was briefly anesthetized for 1 min with 1% isoflurane and implanted subcutaneously a transmitter probe that records core body temperature – Implantable Programmable Temperature Transponder (IPTT-300) by Bio Medic Data Systems (BMDS), DE, USA. The mice were allowed to recover for at least one week from the surgery before any recordings were made and observed in their home cages prior to pyrogen challenge for inducing fever. Temperatures were recorded using the BMDS DAS-8027-IUS data reading system.
# 15% yeast, 0.1 mL/kg (MilliporeSigma, Billerica, MA, USA) was used to induce fever. All animals used in this assay were male CD1 mice, which were fasted overnight (15 h) before the start of the assay.
# Mice received either yeast in 0.9% saline (sterile) (vehicle) or just 0.9% saline as an ip injection. […] All mice that didn’t show a significant change in body temperature or appeared sick post-pyrogen challenge were excluded (n = 5) from subsequent drug administrations.
# All drugs and vehicle (10% DMSO: 10% labrasol :80% PEG400) were administered by oral gavage, PO administration. Each dosing volume was ~ 0.3–0.4 mL per mouse. […]
# [4] = tested on: CD-1 male mice; assay: LPS fever induction antipyresis assay; conditions: 75 mg/kg PO, LPS 100 μg/kg ip, n = 20
# Method: as §1
# All mice were fasted overnight (15 h) with free access to water ad libitum prior to the pyrogen challenge. For the induction of fever, LPS from E. coli (100 μg/kg, 0111:B4) (MilliporeSigma, Billerica, MA, USA) was used. Mice received either LPS in 0.9% saline (sterile) (vehicle) or just 0.9% saline as an intraperitoneal (ip) injection.
# All drugs and vehicle (10% DMSO: 10% labrasol :80% PEG400) were administered by oral gavage, PO dosing. Each dosing volume was ~ 0.3–0.4 mL per mouse. […] We chose this dose to record antipyretic effect in a low dose that doesn’t cause hypothermia in mice.
# [5] = tested on: Sprague–Dawley rats; assay: CFA-induced inflammatory pain / Hargreaves thermal sensitivity assay; conditions: high dose (100 mg/kg)
# Excerpt: In these same cohorts of animals, we simultaneously measured their thermal nociception to hyperalgesia with the Hargreaves test using the plantar test apparatus (Ugo Basile 37,570). In this experimental setup, the rodents are placed in plastic cages on top of a glass surface, and their hind paws are subjected to an infrared heat stimulus. One hind paw at a time is stimulated with the light source (noxious stimuli) until the animal retracts the paw from the glass surface because of the stimulus. Baseline withdrawal thresholds (latency) of both the right and left paws were recorded, and animals were assigned to different treatment groups so that each group had approximately equal withdrawal threshold averages in both paws. After baseline testing, treated animals received subcutaneous plantar injection (150 μl) of 50% CFA into the left hind paw, while control animals received a plantar injection (150 µl) of 0.9% NaCl into their left hind paw. CFA induces inflammation, resulting in a left hind paw that is hypersensitive to the thermal stimulus, while the right hind paw serves as a within-subject baseline for each animal. To obtain Hargreaves withdrawal latency recordings, each animal was placed in an individual plastic observation compartment on a glass platform, which provided access to the plantar surface of the hind paws from underneath. After acclimation to the environment for 30 min, thermal hypersensitivity was assessed by stimulating the mid-plantar area of each hind paw with a bright light source attached to the meter (Ugo Basile 37,570) until animals withdrew the paw from the surface. The withdrawal threshold was defined as the average time (s) required for the rat to withdraw the stimulated paw. A brisk withdrawal of the paw (often followed by a sustained retraction and/or licking) was considered a positive response, but paw withdrawals due to locomotion or weight shifting were not counted. The Hargreaves studies were conducted with the plantar stimulation device that automatically registers the time (s) necessary to elicit paw withdrawal in order to eliminate bias in determining paw withdrawal thresholds. A cutoff of 20 s is pre-programmed so that the light source shuts off at that maximal period so as to not induce any burns on the plantar surface of the rodents. The Hargreaves test permits measurement of ipsilateral and contralateral heat thresholds, allowing each animal to serve as its own internal control in unilateral pain models. In addition, the Hargreaves test enables quantification of heat thresholds in unrestrained animals, reducing the likelihood of stress-induced responses.
# [6] = read-out: ED50 Acetic acid writhing Assay (Mice), Aged (Male)
# [7] = read-out: ED50 Acetic acid writhing Assay (Mice), Young (Female)
# [8] = read-out: ED50 Acetic acid writhing Assay (Mice), Young (Male)
# [9] = young male and young female rats
SMILES,Animals dead in 48 h [1],"ED50 [2, 6] [µmol/kg]","ED50 [2, 7] [µmol/kg]","ED50 [2, 8] [µmol/kg]",Analgesia in acetic acid-induced writhing assay [2],"Antipyresis, yeast fever (core body temperature) [3]","Antipyresis, LPS fever [4]",Analgesia in Hargreaves assay (paw withdrawal latencies) ([5]; aged male rats),"Analgesia in Hargreaves assay (paw withdrawal latencies) [5, 9]"
"CC(=O)Nc1ccc(O)cc1 [ApAP, acetaminophen, reference compound]",75%,71.6,661,75.8,significant analgesia,subsequent reduction in core body temperature,comparable antipyresis,significant analgesia,significant analgesia
"CCN(CC)C(=O)c1ccccc1S(=O)(=O)NCC(=O)Nc1ccc(O)cc1 [SRP-001, N,N-diethyl-2-[[2-(4-hydroxyanilino)-2-oxo-ethyl]sulfamoyl]benzamide]",none,22.1,237,31.1,significant analgesia,subsequent reduction in core body temperature,comparable antipyresis,significant analgesia,significant analgesia
